Where “and” joins values, the source holds several entries; their conditions need not be identical. Equal values may be shown once. Read-outs that look alike come from different tables or passages of the source.
How the values were obtained:
CHO-K1 cells = tested on: CHO-K1 cells
Procedure: A chromosomal aberration test was performed to evaluate the potential for antrocin to induce structural chromosomal abnormalities in Chinese hamster ovary cells (CHO-K1 cells). The test followed the protocol in Genetic Toxicology Testing: A Laboratory Manual. CHO-K1 cells were obtained from the Bioresource Collection and Research Center (BCRC), and were cultured in Ham F-12 medium with 10% fetal bovine serum and 0.1% Penicillin–Streptomycin at 5% CO2 in a 37 °C incubator. […] Three experimental conditions were conducted: 3 h with and without S9 (short term), and 19 h without S9 (long term). […] CHO-K1 cells were cultured in 25T flasks, incubated with samples for 3 or 19 h with and without S9, and harvested at the time of 1.5 cell cycle lengths (about 21 h). Two hours before harvesting, 100 μL colcemid (10 μg/mL) was added to disrupt cell mitosis. Collected cells were then treated with 0.6% KCl solution and fixed with acetic acid–methanol (1:3) solution. After fixation, cells were stained with Diff-Quik on a glass slide. A total of 300 cells in metaphase per group were observed, and the number of chromosomal aberrations was recorded. The chromosomal aberration rate (%) was calculated using the following formula: (number of cells with aberrations/total number of cells examined) × 100. A Student’s t-test was used for statistical analysis, and a significant increase (p < 0.05) compared to the negative control indicated a positive response.

Total polyphenol content = settings: 10 mg/mL antrocin
Procedure: We added 40–50 μL of sample to a 96-well plate and made it up to 100 μL with ddH2O. For each sample, a parallel sample was prepared as a sample background control. Vanillic acid was used as a positive control. We added 50 μL of 50 mM vanillic acid solution per well to the desired wells and made it up to 100 μL with ddH2O. We adjusted the volume of all standard curves to 100 µL with ddH2O. We then added 20 μL PC (Phenolic Compounds) Probe to the standard curve and sample reaction wells, and 20 μL PC Assay Buffer to the sample background wells. For standard curve preparation, we added 0, 2, 4, 6, 8, and 10 μL of 1 mM catechin standards to clear 96-well plates to generate 0, 2, 4, 6, 8, and 10 nmol/well catechin standard, respectively. We adjusted the volume of all standard curves to 100 µL with ddH2O. […] The absorbance was measured at 480 nm.
We subtracted the 0 nmol standard OD480 value from all standard curve readings and drew a catechin standard curve. If the sample background well reads were significant, the sample background control reads were subtracted from their paired sample reads. […]
B stands for the amount of diazo chromophore, calculated from the standard curve (nmol of catechin); D stands for the sample dilution factor (for undiluted samples, D = 1); V stands for the volume of sample added to the well (in µL).

[1] = Trolox equivalent antioxidant capacity (TEAC); settings: 10 mg/mL antrocin
Procedure: The following methodology describes the TEAC assay: Add 40 μL of sample to a 96-well plate and adjust the volume to 100 μL with ddH2O. The absorbance of the sample should be within the linear range of the standard curve (0–20 nmol/well). The detection limit of this assay is approximately 0.1 nmol (or 1 µM) Trolox per well. For Trolox Standard Curve Preparation, dissolve lyophilized Trolox Standard in 20 µL of pure DMSO, add 980 µL of distilled water and mix well to generate a 1 mM solution, then aliquot the solution and store it at −20 °C for stable storage for 4 months. Add 0, 4, 8, 12, 16, 20 µL of Trolox standard to each well. Adjust the total volume to 100 µL with ddH2O to obtain 0, 4, 8, 12, 16, 20 nmol of Trolox standards, respectively. For preparation of working solutions, dilute 1 part of Cu^2+ reagent with 49 parts of Assay Diluent, and dilute enough working solution for detection. Add 100 µL of Cu^2+ working solution to standard wells and sample wells. After capping the plate and reacting at room temperature for 1.5 h, measure the absorbance at 570 nm. Draw a Trolox standard curve by subtracting the 0 nmol standard reading from all standard curve readings. […]
• Sa = the amount of sample (in nmol) read from the standard curve. • Sv = the undiluted sample volume added to the well.

C=C1CC[C@H]2C(C)(C)CCC[C@@]23C(=O)OC[C@@H]13 [Antrocin, (-)-Antrocin]
chromosomal aberration frequency versus negative control (CHO-K1 cells; 25-100 μg/mL, short-term with S9, short-term without S9, long-term exposure): no significant differences | Frequency of Chromosomal Aberration (%) (CHO-K1 cells; with S9 (3 h), 25 μg/mL): 5.3 ± 1.2% | Total Aberrations (CHO-K1 cells; with S9 (3 h), 25 μg/mL): 16/300 | Frequency of Chromosomal Aberration (%) (CHO-K1 cells; with S9 (3 h), 50 μg/mL): 6.3 ± 2.1% | Total Aberrations (CHO-K1 cells; with S9 (3 h), 50 μg/mL): 19/300 | Frequency of Chromosomal Aberration (%) (CHO-K1 cells; with S9 (3 h), 100 μg/mL): 6.3 ± 2.1% | Total Aberrations (CHO-K1 cells; with S9 (3 h), 100 μg/mL): 19/300 | Frequency of Chromosomal Aberration (%) (CHO-K1 cells; without S9 (3 h), 25 μg/mL): 4.3 ± 3.8% | Total Aberrations (CHO-K1 cells; without S9 (3 h), 25 μg/mL): 13/300 | Frequency of Chromosomal Aberration (%) (CHO-K1 cells; without S9 (3 h), 50 μg/mL): 4.3 ± 2.9% | Total Aberrations (CHO-K1 cells; without S9 (3 h), 50 μg/mL): 13/300 | Frequency of Chromosomal Aberration (%) (CHO-K1 cells; without S9 (3 h), 100 μg/mL): 5.3 ± 2.1% | Total Aberrations (CHO-K1 cells; without S9 (3 h), 100 μg/mL): 16/300 | Frequency of Chromosomal Aberration (%) (CHO-K1 cells; without S9 (19 h), 25 μg/mL): 9.3 ± 1.2% | Total Aberrations (CHO-K1 cells; without S9 (19 h), 25 μg/mL): 28/300 | Frequency of Chromosomal Aberration (%) (CHO-K1 cells; without S9 (19 h), 50 μg/mL): 10.3 ± 2.5% | Total Aberrations (CHO-K1 cells; without S9 (19 h), 50 μg/mL): 31/300 | Frequency of Chromosomal Aberration (%) (CHO-K1 cells; without S9 (19 h), 100 μg/mL): 7.3 ± 1.5% | Total Aberrations (CHO-K1 cells; without S9 (19 h), 100 μg/mL): 22/300 | Total Phenolic Contents (mM Catechin Equivalents) (Total polyphenol content): 0.016 ± 0.000 mM Catechin equivalents and 0.016 ± 0.000 ^1 mM Catechin equivalents | Trolox Equivalent Antioxidant Capacity (mM Trolox Equivalents) [1]: 0.508 ± 0.003 mM Trolox equivalents
